# Reference: patent US20040127403A1, “Methods for treating and preventing Gram-positive bacteremias” (priority 2002, published 2004)
# Read-outs that look alike come from different tables or passages of the source.
# Tests used:
# Assay in all cases: MIC, NCCLS broth microdilution
# Assay type in all cases: cell-based
# S. epidermidis ATCC35984 = conditions: Staphylococcus epidermidis, ATCC35984, S. epidermidis ATCC35984, read-out: MIC
# E. faecium A4192 Syn-R = conditions: Enterococcus faecium, A4192SYNR, read-out: MIC
# Protocol: (§1) The efficacy of ramoplanin was tested against recently isolated VRE that are resistant to linezolid and quinupristin/dalfopristin. The culture media containing ramoplanin was supplemented with 0.02% bovine serum albumin (BSA) to prevent ramoplanin binding to the plastic. MIC values were determined in both cation-adjusted Mueller-Hinton broth (CAMHB) and trypticase soy broth (TSB) by the National Committee for Clinical Laboratory Standards (NCCLS) broth microdilution method. Macromolecular biosynthesis experiments were done by following the incorporation of carbon-14-labeled N-acetylglucosamine, acetic acid, amino acids, uridine, and thymidine into peptidoglycan, fatty acid, protein, RNA and DNA, respectively.
# S. aureus ATCC19636 MSSA = conditions: Staphylococcus aureus, read-out: MIC
# Protocol: as §1
# E. faecalis ATCC29212 = test system: E. faecalis ATCC29212
# Protocol: as §1
# E. faecium 1836 = conditions: Enterococcus faecium, 1836, E. faecium 1836, read-out: MIC
# Protocol: as §1
# [1] = test system: S. aureus ATCC700699 MRSA/VISA; conditions: Staphylococcus aureus, S. aureus ATCC700699 MRSA/VISA, read-out: MIC
# Protocol: as §1
# S. aureus ATCC27660 MSSA = conditions: Staphylococcus aureus, read-out: MIC
# Protocol: as §1
# E. faecium A6345 Line-R = conditions: for MIC: Enterococcus faecium, A6345LINER, E. faecium A6345 Line-R, read-out: MIC
# Protocol: as §1
# E. faecium UA210 = conditions: Enterococcus faecium, UA210, E. faecium UA210, read-out: MIC
# Protocol: as §1
# E. faecium A5959 Line-R = conditions: Enterococcus faecium, A5959LINER
# Protocol: as §1
# E. faecium ATCC700221 = conditions: Enterococcus faecium, ATCC700221, E. faecium ATCC700221, read-out: MIC
# Protocol: as §1
# S. aureus ATCC27659 MSSA = conditions: Staphylococcus aureus, read-out: MIC
# Protocol: as §1
# S. epidermidis ATCC12228 = conditions: Staphylococcus epidermidis, ATCC12228, S. epidermidis ATCC12228, read-out: MIC
# Protocol: as §1
# E. faecium A2735 Syn-R = conditions: Enterococcus faecium, A2735SYNR, read-out: MIC
# Protocol: as §1
# E. faecium A6343 Line-R = conditions: Enterococcus faecium, A6343LINER, read-out: MIC
# Protocol: as §1
# S. aureus ATCC12600 MRSA = conditions: Staphylococcus aureus, read-out: MIC
# Protocol: as §1
# S. epidermidis ATCC35983 = conditions: Staphylococcus epidermidis, ATCC35983, S. epidermidis ATCC35983, read-out: MIC
# Protocol: as §1
# E. faecium A-5960 Line-R = conditions: Enterococcus faecium, A5960LINER
# Protocol: as §1
# E. faecalis ATCC51299 = conditions: Enterococcus faecalis, ATCC51299, E. faecalis ATCC51299, read-out: MIC
# Protocol: as §1
# E. faecium A6349 Line-R = conditions: Enterococcus faecium, A6349LINER, read-out: MIC
# Protocol: as §1
# S. aureus ATCC43300 MRSA = conditions: Staphylococcus aureus, ATCC 43300 / MRSA / VISA, S. aureus ATCC43300 MRSA/VISA, read-out: MIC
# Protocol: as §1
# E. faecium A6350 Line-R = conditions: Enterococcus faecium, A6350LINER, read-out: MIC
# Protocol: as §1
# E. gallinarum UA604 = conditions: Enterococcus gallinarum, GALLINARUM, read-out: MIC
# Protocol: as §1
# [2] = Enterococcus faecalis, ATCC29212, E. faecalis ATCC29212, Table 6, 1st, read-out: MIC
# [3] = Enterococcus faecalis, ATCC29212, E. faecalis ATCC29212, Table 6, 2nd, read-out: MIC
smiles,measurement,setting,value
CC(=O)NC[C@H]1CN(c2ccc(N3CCOCC3)c(F)c2)C(=O)O1 [Linezolid],MIC,"S. epidermidis ATCC35984; Table 6, 1st",4 µg/mL
same,MIC,"S. epidermidis ATCC35984; Table 6, 2nd",2 µg/mL
same,MIC,"E. faecium A4192 Syn-R; Table 6, 1st",4 µg/mL
same,MIC,"E. faecium A4192 Syn-R; Table 6, 2nd",2 µg/mL
same,MIC,"S. aureus ATCC19636 MSSA; Table 6, 1st",4 µg/mL
same,MIC,"S. aureus ATCC19636 MSSA; Table 6, 2nd",2 µg/mL
same,MIC,E. faecalis ATCC29212; [2],4 µg/mL
same,MIC,E. faecalis ATCC29212; [3],2 µg/mL
same,MIC,"E. faecium 1836; Table 6, 1st",4 µg/mL
same,MIC,"E. faecium 1836; Table 6, 2nd",2 µg/mL
same,MIC,"[1]; Table 6, 1st",4 µg/mL
same,MIC,"[1]; Table 6, 2nd",2 µg/mL
same,MIC,"S. aureus ATCC27660 MSSA; Table 6, 1st",4 µg/mL
same,MIC,"S. aureus ATCC27660 MSSA; Table 6, 2nd",2 µg/mL
same,reference MIC for strains used for killing curve,"E. faecium A6345 Line-R; E. faecium A6345 Line-R. as printed, second row of Table 3",16 µg/mL
same,reference MIC for strains used for killing curve,"E. faecium A6345 Line-R; E. faecium A6345 Line-R., first row of Table 3",16 to 32 µg/mL
same,MIC,"E. faecium A6345 Line-R; Table 6, 1st",> 16 µg/mL
same,MIC,"E. faecium A6345 Line-R; Table 6, 2nd",32 µg/mL
same,MIC,"E. faecium UA210; Table 6, 1st",4 µg/mL
same,MIC,"E. faecium UA210; Table 6, 2nd",2 µg/mL
same,MIC,"E. faecium A5959 Line-R; Table 6, 1st",> 16 µg/mL
same,MIC,"E. faecium A5959 Line-R; Table 6, 2nd",16 µg/mL
same,MIC,"E. faecium ATCC700221; Table 6, 1st",4 µg/mL
same,MIC,"E. faecium ATCC700221; Table 6, 2nd",2 µg/mL
same,MIC,"S. aureus ATCC27659 MSSA; Table 6, 1st",4 µg/mL
same,MIC,"S. aureus ATCC27659 MSSA; Table 6, 2nd",2 µg/mL
same,MIC,"S. epidermidis ATCC12228; Table 6, 1st",2 µg/mL
same,MIC,"S. epidermidis ATCC12228; Table 6, 2nd",2 µg/mL
same,MIC,"E. faecium A2735 Syn-R; Table 6, 1st",4 µg/mL
same,MIC,"E. faecium A2735 Syn-R; Table 6, 2nd",2 µg/mL
same,MIC,"E. faecium A6343 Line-R; Table 6, 1st",8 µg/mL
same,MIC,"E. faecium A6343 Line-R; Table 6, 2nd",8 µg/mL
same,MIC,"S. aureus ATCC12600 MRSA; Table 6, 1st",4 µg/mL
same,MIC,"S. aureus ATCC12600 MRSA; Table 6, 2nd",2 µg/mL
same,MIC,"S. epidermidis ATCC35983; Table 6, 1st",2 µg/mL
same,MIC,"S. epidermidis ATCC35983; Table 6, 2nd",2 µg/mL
same,MIC,"E. faecium A-5960 Line-R; Table 6, 1st",> 16 µg/mL
same,MIC,"E. faecium A-5960 Line-R; Table 6, 2nd",32 µg/mL
same,MIC,"E. faecalis ATCC51299; Table 6, 1st",2 µg/mL
same,MIC,"E. faecalis ATCC51299; Table 6, 2nd",2 µg/mL
same,MIC,"E. faecium A6349 Line-R; Table 6, 1st",16 µg/mL
same,MIC,"E. faecium A6349 Line-R; Table 6, 2nd",16 µg/mL
same,MIC,"S. aureus ATCC43300 MRSA; Table 6, 1st",4 µg/mL
same,MIC,"S. aureus ATCC43300 MRSA; Table 6, 2nd",2 µg/mL
same,MIC,"E. faecium A6350 Line-R; Table 6, 1st",4 µg/mL
same,MIC,"E. faecium A6350 Line-R; Table 6, 2nd",2 µg/mL
same,MIC,"E. gallinarum UA604; Table 6, 1st",4 µg/mL
same,MIC,"E. gallinarum UA604; Table 6, 2nd",2 µg/mL
"COc1cccc(OC)c1C(=O)N[C@@H]1C(=O)N2[C@@H]1SC(C)(C)[C@@H]2C(=O)O [Meth., methicillin]",MIC,"S. epidermidis ATCC35984; Table 6, 1st",> 16 µg/mL
same,MIC,"S. epidermidis ATCC35984; Table 6, 2nd",> 64 µg/mL
same,MIC,"E. faecium A4192 Syn-R; Table 6, 1st",> 16 µg/mL
same,MIC,"E. faecium A4192 Syn-R; Table 6, 2nd",> 64 µg/mL
same,MIC,"S. aureus ATCC19636 MSSA; Table 6, 1st",1 µg/mL
same,MIC,"S. aureus ATCC19636 MSSA; Table 6, 2nd",2 µg/mL
same,MIC,"E. faecalis ATCC29212; E. faecalis ATCC29212, Table 6, 1st",16 µg/mL
same,MIC,E. faecalis ATCC29212; [2],> 16 µg/mL
same,MIC,E. faecalis ATCC29212; [3],32 µg/mL
same,MIC,"E. faecium 1836; Table 6, 1st",> 16 µg/mL
same,MIC,"E. faecium 1836; Table 6, 2nd",> 64 µg/mL
same,MIC,"[1]; Table 6, 1st",> 16 µg/mL
same,MIC,"[1]; Table 6, 2nd",> 64 µg/mL
same,MIC,"S. aureus ATCC27660 MSSA; Table 6, 1st",2 µg/mL
same,MIC,"S. aureus ATCC27660 MSSA; Table 6, 2nd",4 µg/mL
same,MIC,"E. faecium A6345 Line-R; Table 6, 1st",> 16 µg/mL
same,MIC,"E. faecium A6345 Line-R; Table 6, 2nd",> 64 µg/mL
same,MIC,"E. faecium UA210; Table 6, 1st",> 16 µg/mL
same,MIC,"E. faecium UA210; Table 6, 2nd",> 64 µg/mL
same,MIC,"E. faecium A5959 Line-R; Table 6, 1st",> 16 µg/mL
same,MIC,"E. faecium A5959 Line-R; Table 6, 2nd",> 64 µg/mL
same,MIC,"E. faecium ATCC700221; Table 6, 1st",> 16 µg/mL
same,MIC,"E. faecium ATCC700221; Table 6, 2nd",> 64 µg/mL
same,MIC,"S. aureus ATCC27659 MSSA; Table 6, 1st",2 µg/mL
same,MIC,"S. aureus ATCC27659 MSSA; Table 6, 2nd",2 µg/mL
same,MIC,"S. epidermidis ATCC12228; Table 6, 1st",1 µg/mL
same,MIC,"S. epidermidis ATCC12228; Table 6, 2nd",2 µg/mL
same,MIC,"E. faecium A2735 Syn-R; Table 6, 1st",> 16 µg/mL
same,MIC,"E. faecium A2735 Syn-R; Table 6, 2nd",> 64 µg/mL
same,MIC,"E. faecium A6343 Line-R; Table 6, 1st",> 16 µg/mL
same,MIC,"E. faecium A6343 Line-R; Table 6, 2nd",64 µg/mL
same,MIC,"S. aureus ATCC12600 MRSA; Table 6, 1st",2 µg/mL
same,MIC,"S. aureus ATCC12600 MRSA; Table 6, 2nd",> 64 µg/mL
same,MIC,"S. epidermidis ATCC35983; Table 6, 1st",> 16 µg/mL
same,MIC,"S. epidermidis ATCC35983; Table 6, 2nd",64 µg/mL
same,MIC,"E. faecium A-5960 Line-R; Table 6, 1st",> 16 µg/mL
same,MIC,"E. faecium A-5960 Line-R; Table 6, 2nd",> 64 µg/mL
same,MIC,"E. faecalis ATCC51299; Table 6, 1st",> 16 µg/mL
same,MIC,"E. faecalis ATCC51299; Table 6, 2nd",32 µg/mL
same,MIC,"E. faecium A6349 Line-R; Table 6, 1st",> 16 µg/mL
same,MIC,"E. faecium A6349 Line-R; Table 6, 2nd",> 64 µg/mL
same,MIC,"S. aureus ATCC43300 MRSA; Table 6, 1st",8 µg/mL
same,MIC,"S. aureus ATCC43300 MRSA; Table 6, 2nd",8 µg/mL
same,MIC,"E. faecium A6350 Line-R; Table 6, 1st",> 16 µg/mL
same,MIC,"E. faecium A6350 Line-R; Table 6, 2nd",64 µg/mL
same,MIC,"E. gallinarum UA604; Table 6, 1st",> 16 µg/mL
same,MIC,"E. gallinarum UA604; Table 6, 2nd",> 64 µg/mL
